Source: US20110257148A1, “NOVEL 1-ALKYL-3-HYDROXY-3-PHENYLAZETIDINE DERIVATIVES USEFUL AS MODULATORS OF CORTICAL CATECHOLAMINERGIC NEUROTRANSMISSION” (NSAB, FILIAL AF N[…] AB, SVERIGE, priority 2008, published 2011)
Structures can show the parent of a compound that is named as a salt.

SMILES	melting point [°C]
CCCN1CC(O)(c2cccc(Cl)c2F)C1 (as salt: fumaric acid salt) [Example 6, 3-(3-Chloro-2-Fluorophenyl)-1-Propylazetidin-3-Ol]	167 to 168
CCCN1CC(O)(c2cc(F)cc(Cl)c2)C1 (as salt: fumaric acid salt)	147 to 149
CC(C)N1CC(O)(c2cc(F)cc(F)c2)C1 (as salt: fumaric acid salt)	185 to 186

The remaining lines, values ahead:

melting point [°C]	SMILES
157 to 159	CCCN1CC(O)(c2ccc(F)c(F)c2)C1 (as salt: fumaric acid salt)
161 to 165	CCCN1CC(O)(c2cccc(F)c2F)C1 (as salt: fumaric acid salt) [Example 1, 3-(2,3-DIFLUOROPHENYL)-1-PROPYLAZETIDIN-3-OL]
162 to 164	CCCN1CC(O)(c2cc(F)cc(F)c2)C1 (as salt: fumaric acid salt)
